Where two headings read alike, the source gives them in different places.

Data set [1] is described as follows: Pharmacokinetic assessment: plasma concentrations by liquid chromatography tandem mass spectrometry after ticagrelor loading dose. It is filed as in vivo, human (patients with myocardial infarction). Particulars: for Tmax / AUC(0-t) / Cmax: both sexes, human, plasma, 180 mg. The procedure:
Consecutive STEMI and NSTEMI patients admitted to the study site (Cardiology Department, Dr. A. Jurasz University Hospital, Bydgoszcz, Poland) were screened for eligibility. After admission to the study centre, confirmation of the initial diagnosis of STEMI or NSTEMI, and provision of a written informed consent to participate in the trial, all study participants received an oral 300 mg LD of plain aspirin (Polpharma SA, Starogard Gdański, Poland) and 180 mg LD ticagrelor in integral tablets with 250 mL tap water. Subsequently, within 15 minutes of ticagrelor LD, all patients underwent coronary angiography followed by PCI as required. During the periprocedural period, all study participants received unfractionated heparin in body weight adjusted dose according to the European Society of Cardiology (ESC) recommendations. Plasma concentrations of ticagrelor and its active metabolite, as well as their antiplatelet effect, were evaluated according to the sampling schedule employed at our centre in previous PK/PD study (pre-treatment, 0.5 h, 1 h, 2 h, 3 h, 4 h, 6 h and 12 h post ticagrelor LD).
Blood samples for PK/PD evaluation were obtained from an 18-gauge cannula inserted into one of the forearm veins. The first 5 mL blood was discarded to avoid spontaneous platelet activation. In each patient specimens were collected at the eight pre-defined time. Detailed description of blood sample processing has been published in the study protocol (S1 File).
Ticagrelor and AR-C124910XX plasma concentrations were analyzed with liquid chromatography coupled with tandem mass spectrometry, using a validated method. Lower limits of quantification were 4.69 ng/mL for both ticagrelor and AR-C124910XX.
Statistical calculations were performed using the Statistica 12.5 package (StatSoft, Tulsa, OK, USA). Pharmacokinetic calculations and plots were made using the Matlab R2014 software (Mathworks, Natick, MA, USA); trapezoidal rule was applied to calculate AUC. Data for pharmacokinetic features of ticagrelor and AR-C124910XX, pharmacodynamic outcome variables, creatinine, glomerular filtration rate and left ventricle ejection fraction were presented as medians and interquartile ranges. Data for heart rate, systolic and diastolic blood pressure, age and body mass index were presented as means with standard deviations. […] Continuous variables were compared between both study groups with the Student’s t-test and Mann-Whitney U test, depending on the presence or absence of the normal distribution (as assessed by the Shapiro-Wilk test). Comparisons between categorical variables were performed by the chi-square test, with Yates's correction if necessary, or using Fisher's exact test. […]
Blood samples for pharmacokinetic and phar- infarction; PCI, percutaneous coronary intervention; PD, macodynamic assessment will be drawn at eight prede- pharmacodynamics; PK, pharmacokinetics; STEMI, ﬁned time points according to the blood sampling ST-elevation myocardial infarction. schedule already used at our site in a previous study
( pretreatment baseline, 30 min, 1, 2, 3, 4, 6 andsamples will be stored at temperature below −60°C until 12 hours post-ticagrelor LD— as shown in ﬁgure 1). 31 analysed.
All enrolled patients with ﬁnally unconﬁrmed initial Venous blood for the assessment of pharmacodynam-diagnosis of AMI will be excluded from the primar y ana- ics with the vasodilator-stimulated phosphoprotein lysis. Patients qualiﬁed for urgent coronar y arter y bypass (VASP) assay and multiple electrode aggregometr y surgery within the blood sampling period also will not (MEA) will be collected into trisodium citrate and be included in the analysis. All study participants not hirudin vacuum test tubes, respectively. The ﬁrst 3–5mL receiving PCI will be reported. of blood will be discarded to avoid spontaneous platelet Study population activation. The pharmacodynamic analysis will be per- […]

Test in data set [2]: as above
It is filed as in vivo, human (patients with myocardial infarction). Particulars: both sexes, human, oral, 180 mg, internal pilot study, first 15 patients with NSTEMI, mean and SD, read-out: AUC(0–6).

Where [3] appears, read: po, NSTEMI patients, oral 180 mg ticagrelor LD, 0 to 12 hours, median [interquartile range].
Setting [4] is: po, STEMI patients, oral 180 mg ticagrelor LD, 0 to 12 hours, median [interquartile range].

What is called Tmax is the time from dosing to the highest level. One may read the Cmax as the highest concentration seen after dosing. Turning to `CCCSc1nc(N[C@@H]2C[C@H]2c2ccc(F)c(F)c2)c2nnn([C@@H]3C[C@H](OCCO)[C@@H](O)[C@H]3O)c2n1` [ticagrelor], the Tmax in data set [1] (oral, NSTEMI opioid-treated (morphine) patients (second value of the pair), post hoc analysis, median [interquartile range]) was 4 h; in data set [1] (oral, NSTEMI patients without morphine (first value of the pair), post hoc analysis, median [interquartile range]) it was 1 h; in data set [1] (setting [3]), 2.5 h; in data set [1] (setting [4]), 4 h. The AUC(0-t) in data set [1] (oral, internal pilot study, first 30 patients with STEMI, mean and SD, read-out: AUC(0–6)) worked out at 2380 ± 2280 ng·h/mL; in data set [1] (po, NSTEMI patients (n = 24), oral 180 mg ticagrelor LD, median [interquartile range], read-out: AUC(0–6)), 3990 ng·h/mL; in data set [1] (po, NSTEMI patients, oral 180 mg ticagrelor LD, median [interquartile range], read-out: AUC(0–12)) it was 8600 ng·h/mL; in data set [1] (po, STEMI patients (n = 49), oral 180 mg ticagrelor LD, median [interquartile range], read-out: AUC(0–6)), 2490 ng·h/mL; in data set [1] (po, STEMI patients, oral 180 mg ticagrelor LD, median [interquartile range], read-out: AUC(0–12)), 5680 ng·h/mL; in data set [2] it was 6410 ± 4080 ng·h/mL. Further, the Cmax is 1160 ng/mL in data set [1] (setting [3]) and 1110 ng/mL in data set [1] (setting [4]). Further, in data set [1] (first 6 h after 180 mg ticagrelor LD), the “lower AUC(0–6) in STEMI than in NSTEMI patients” value was 38%.

These data come from publication PMC5638327, “Comparison of bioavailability and antiplatelet action of ticagrelor in patients with ST-elevation myocardial infarction and non-ST-elevation myocardial infarction: A prospective, observational, single-centre study” (PLoS ONE, 2017).
